Measurements: US8541460B2, “PDK-1/Akt signaling inhibitors” (The Ohio State University, priority 2003, dated 2013)

Assays:
immunoprecipitated Akt = assay: Direct inhibition of immunoprecipitated Akt kinase activity; format: biochemical, human
OVCAR-5 = assay: NCI DTP cell line screen (SRB), Ovarian Cancer; format: cell-based
Experimental: (§1) Screening of compounds 70 and 71 against several cancer cell lines The human tumor cell lines of the cancer screening panel are grown in RPMI 1640 medium containing 5% fetal bovine serum and 2 mM L-glutamine. For a typical screening experiment, cells are inoculated into 96 well microtiter plates in 100 μL at plating densities ranging from 5,000 to 40,000 cells/well depending on the doubling time of individual cell lines. After cell inoculation, the microtiter plates are incubated at 37° C., 5% CO2, 95% air and 100% relative humidity for 24 h prior to addition of experimental drugs.
(§2) After 24 h, two plates of each cell line are fixed in situ with TCA, to represent a measurement of the cell population for each cell line at the time of drug addition (Tz). Experimental drugs are solubilized in dimethyl sulfoxide at 400-fold the desired final maximum test concentration and stored frozen prior to use. At the time of drug addition, an aliquot of frozen concentrate is thawed and diluted to twice the desired final maximum test concentration with complete medium containing 50 μg/ml gentamicin. Additional four, 10-fold or ½ log serial dilutions are made to provide a total of five drug concentrations plus control. Aliquots of 100 μl of these different drug dilutions are added to the appropriate microtiter wells already containing 100 μl of medium, resulting in the required final drug concentrations.
(§3) Following drug addition, the plates are incubated for an additional 48 h at 37° C., 5% CO2, 95% air, and 100% relative humidity. For adherent cells, the assay is terminated by the addition of cold TCA. Cells are fixed in situ by the gentle addition of 50 μl of cold 50% (w/v) TCA (final concentration, 10% TCA) and incubated for 60 minutes at 4° C. The supernatant is discarded, and the plates are washed five times with tap water and air dried. Sulforhodamine B (SRB) solution (100 μl) at 0.4% (w/v) in 1% acetic acid is added to each well, and plates are incubated for 10 minutes at room temperature. After staining, unbound dye is removed by washing five times with 1% acetic acid and the plates are air dried. Bound stain is subsequently solubilized with 10 mM trizma base, and the absorbance is read on an automated plate reader at a wavelength of 515 nm. For suspension cells, the methodology is the same except that the assay is terminated by fixing settled cells at the bottom of the wells by gently adding 50 μl of 80% TCA (final concentration, 16% TCA). Using the seven absorbance measurements [time zero, (Tz), control growth, (C), and test growth in the presence of drug at the five concentration levels (Ti)], the percentage growth is calculated at each of the drug concentrations levels. Percentage growth inhibition is calculated as: [(Ti−Tz)/(C−Tz)]×100 for concentrations for which Ti>/=Tz [(Ti−Tz)/Tz]×100 for concentrations for which Ti<Tz
(§4) Three dose response parameters are calculated for each experimental agent. […] The drug concentration resulting in total growth inhibition (TGI) is calculated from Ti=Tz. […] Values are calculated for each of these three parameters if the level of activity is reached; however, if the effect is not reached or is exceeded, the value for that parameter is expressed as greater or less than the maximum or minimum concentration tested.
(§5) The methods described were used to test compounds 70 and 71 on a panel of sixty cell lines under a screening service provided by the Developmental Therapeutics Program at the National Institutes of Health. Shown in FIG. 1C are 1, RPMI-8226 leukemia cells; 2; NCI-H322M non-small cell lung cancer cells; 3, HT29 colon cancer cells; 4, U251 CNS cancer cells; 5, SK-MEL-28 melanoma cancer cells; 6, SK-OV-3 ovarian cancer cells; 7, RXF 393 renal cancer cells; 8, PC-3 prostate cancer cells; 9, MDA-MB-231 breast cancer cells.

OVCAR-3 = assay: NCI DTP cell line screen (SRB), Ovarian Cancer; format: cell-based
Experimental: as §1, §2, §3, §4, §5

SK-MEL-28 = assay: NCI DTP cell line screen (SRB), Melanoma; format: cell-based
Experimental: as §1, §2, §3, §4, §5

LOX IMVI = assay: NCI DTP cell line screen (SRB), Melanoma; format: cell-based
Experimental: as §1, §2, §3, §4, §5

SK-MEL-2 = assay: NCI DTP cell line screen (SRB), Melanoma; format: cell-based
Experimental: as §1, §2, §3, §4, §5

M14 = assay: NCI DTP cell line screen (SRB), Melanoma; format: cell-based
Experimental: as §1, §2, §3, §4, §5

CCRF-CEM = assay: NCI DTP cell line screen (SRB), Leukemia; format: cell-based
HOP-92 = assay: NCI DTP cell line screen (SRB), Non-Small Cell Lung Cancer; format: cell-based
[1] = read-out: LC50 (the source's name)

## NCC(=O)Nc1ccc(-n2nc(C(F)(F)F)cc2-c2ccc3c(ccc4ccccc43)c2)cc1 [Compound 70, 2-Amino-N-{4-[5-(2-phenanthrenyl)-3-(trifluoromethyl)-1H-pyrazol-1-yl]-phenyl}-acetamide]
Immunoprecipitated Akt
  direct inhibitory effect on immunoprecipitated Akt activity: no appreciable direct inhibition
OVCAR-5
  TGI: 3.32E−06
OVCAR-5; Log10 Concentration −4.0
  Percent Growth: −71%
OVCAR-5; Log10 Concentration −5.0
  Percent Growth: −83%
OVCAR-5; Log10 Concentration −6.0
  Percent Growth: 90%
OVCAR-5; Log10 Concentration −7.0
  Percent Growth: 103%
OVCAR-5; Log10 Concentration −8.0
  Percent Growth: 97%
OVCAR-3
  TGI: 3.32E−06
OVCAR-3; Log10 Concentration −4.0
  Percent Growth: −35%
OVCAR-3; Log10 Concentration −5.0
  Percent Growth: −70%
OVCAR-3; Log10 Concentration −6.0
  Percent Growth: 76%
OVCAR-3; Log10 Concentration −7.0
  Percent Growth: 83%
OVCAR-3; Log10 Concentration −8.0
  Percent Growth: 89%
SK-MEL-28
  TGI: 2.64E−06
SK-MEL-28; Log10 Concentration −4.0
  Percent Growth: −59%
SK-MEL-28; Log10 Concentration −5.0
  Percent Growth: −87%
SK-MEL-28; Log10 Concentration −6.0
  Percent Growth: 63%
SK-MEL-28; Log10 Concentration −7.0
  Percent Growth: 83%
SK-MEL-28; Log10 Concentration −8.0
  Percent Growth: 94%
LOX IMVI
  TGI: 3.07E−06
LOX IMVI; Log10 Concentration −5.0
  Percent Growth: −50%
LOX IMVI; Log10 Concentration −6.0
  Percent Growth: 48%
LOX IMVI; Log10 Concentration −7.0
  Percent Growth: 76%
LOX IMVI; Log10 Concentration −8.0
  Percent Growth: 105%
SK-MEL-2
  TGI: 5.40E−06
SK-MEL-2; Log10 Concentration −4.0
  Percent Growth: −28%
SK-MEL-2; Log10 Concentration −5.0
  Percent Growth: −37%
SK-MEL-2; Log10 Concentration −6.0
  Percent Growth: 100%
SK-MEL-2; Log10 Concentration −7.0
  Percent Growth: 117%
SK-MEL-2; Log10 Concentration −8.0
  Percent Growth: 114%
M14
  TGI: 5.37E−06
M14; Log10 Concentration −4.0
  Percent Growth: −19%
M14; Log10 Concentration −5.0
  Percent Growth: −33%
M14; Log10 Concentration −6.0
  Percent Growth: 90%
M14; Log10 Concentration −7.0
  Percent Growth: 98%
M14; Log10 Concentration −8.0
  Percent Growth: 98%
CCRF-CEM
  TGI: 2.49E−06
CCRF-CEM; Log10 Concentration −4.0
  Percent Growth: −34%
CCRF-CEM; Log10 Concentration −5.0
  Percent Growth: −43%
CCRF-CEM; Log10 Concentration −6.0
  Percent Growth: 28%
CCRF-CEM; Log10 Concentration −7.0
  Percent Growth: 81%
CCRF-CEM; Log10 Concentration −8.0
  Percent Growth: 74%
HOP-92
  TGI: 3.07E−06
HOP-92; Log10 Concentration −4.0
  Percent Growth: −75%
HOP-92; Log10 Concentration −5.0
  Percent Growth: −91%
HOP-92; Log10 Concentration −6.0
  Percent Growth: 87%
HOP-92; Log10 Concentration −7.0
  Percent Growth: 89%
HOP-92; Log10 Concentration −8.0
  Percent Growth: 96%

## N=C(N)Nc1ccc(-n2nc(C(F)(F)F)cc2-c2ccc3c(ccc4ccccc43)c2)cc1 [Compound 71, 4-[5-(2-Phenanthrenyl)-3-(trifluoromethyl)-1H-pyrazol-1-yl]-phenyl-guanidine]
Immunoprecipitated Akt
  direct inhibitory effect on immunoprecipitated Akt activity: no appreciable direct inhibition
OVCAR-5
  GI50: 1730 nM
  TGI: 3.11E−06
OVCAR-5; Log10 Concentration −4.0
  Mean Optical Densities: 0.474
  Percent Growth: −8%
OVCAR-5; Log10 Concentration −5.0
  Mean Optical Densities: −0.033
  Percent Growth: −100%
OVCAR-5; Log10 Concentration −6.0
  Mean Optical Densities: 1.559
  Percent Growth: 97%
OVCAR-5; Log10 Concentration −7.0
  Mean Optical Densities: 1.437
  Percent Growth: 86%
OVCAR-5; Log10 Concentration −8.0
  Mean Optical Densities: 1.538
  Percent Growth: 95%
OVCAR-3
  GI50: 1400 nM
  TGI: 2.70E−06
OVCAR-3; Log10 Concentration −4.0
  Mean Optical Densities: 0.131
  Percent Growth: −72%
OVCAR-3; Log10 Concentration −5.0
  Mean Optical Densities: −0.043
  Percent Growth: −100%
OVCAR-3; Log10 Concentration −6.0
  Mean Optical Densities: 0.770
  Percent Growth: 76%
OVCAR-3; Log10 Concentration −7.0
  Mean Optical Densities: 0.792
  Percent Growth: 81%
OVCAR-3; Log10 Concentration −8.0
  Mean Optical Densities: 0.833
  Percent Growth: 91%
OVCAR-3; [1]
  CC50: 5200 nM
SK-MEL-28
  GI50: 1560 nM
  TGI: 2.89E−06
SK-MEL-28; Log10 Concentration −4.0
  Mean Optical Densities: 0.248
  Percent Growth: −53%
SK-MEL-28; Log10 Concentration −5.0
  Mean Optical Densities: −0.002
  Percent Growth: −100%
SK-MEL-28; Log10 Concentration −6.0
  Mean Optical Densities: 1.367
  Percent Growth: 86%
SK-MEL-28; Log10 Concentration −7.0
  Mean Optical Densities: 1.408
  Percent Growth: 90%
SK-MEL-28; Log10 Concentration −8.0
  Mean Optical Densities: 1.439
  Percent Growth: 93%
LOX IMVI
  GI50: 1340 nM
  TGI: 2.65E−06
LOX IMVI; Log10 Concentration −4.0
  Mean Optical Densities: 0.165
  Percent Growth: −53%
LOX IMVI; Log10 Concentration −5.0
  Mean Optical Densities: 0.008
  Percent Growth: −98%
LOX IMVI; Log10 Concentration −6.0
  Mean Optical Densities: 0.935
  Percent Growth: 72%
LOX IMVI; Log10 Concentration −7.0
  Mean Optical Densities: 1.033
  Percent Growth: 84%
LOX IMVI; Log10 Concentration −8.0
  Mean Optical Densities: 0.948
  Percent Growth: 73%
LOX IMVI; [1]
  CC50: 5220 nM
SK-MEL-2
  GI50: 1570 nM
  TGI: 2.91E−06
SK-MEL-2; Log10 Concentration −4.0
  Mean Optical Densities: 0.324
  Percent Growth: −29%
SK-MEL-2; Log10 Concentration −5.0
  Mean Optical Densities: −0.010
  Percent Growth: −100%
SK-MEL-2; Log10 Concentration −6.0
  Mean Optical Densities: 0.780
  Percent Growth: 87%
SK-MEL-2; Log10 Concentration −7.0
  Mean Optical Densities: 0.819
  Percent Growth: 97%
SK-MEL-2; Log10 Concentration −8.0
  Mean Optical Densities: 0.775
  Percent Growth: 85%
M14
  GI50: 1480 nM
  TGI: 2.80E−06
M14; Log10 Concentration −4.0
  Mean Optical Densities: 0.210
  Percent Growth: −33%
M14; Log10 Concentration −5.0
  Mean Optical Densities: −0.004
  Percent Growth: −100%
M14; Log10 Concentration −6.0
  Mean Optical Densities: 0.816
  Percent Growth: 81%
M14; Log10 Concentration −7.0
  Mean Optical Densities: 0.823
  Percent Growth: 82%
M14; Log10 Concentration −8.0
  Mean Optical Densities: 0.772
  Percent Growth: 74%
CCRF-CEM
  GI50: 1230 nM
  TGI: 2.48E−06
CCRF-CEM; Log10 Concentration −4.0
  Mean Optical Densities: 0.140
  Percent Growth: −53%
CCRF-CEM; Log10 Concentration −5.0
  Mean Optical Densities: 0.002
  Percent Growth: −99%
CCRF-CEM; Log10 Concentration −6.0
  Mean Optical Densities: 0.718
  Percent Growth: 65%
CCRF-CEM; Log10 Concentration −7.0
  Mean Optical Densities: 0.811
  Percent Growth: 79%
CCRF-CEM; Log10 Concentration −8.0
  Mean Optical Densities: 0.808
  Percent Growth: 78%
CCRF-CEM; [1]
  CC50: 5000 nM
HOP-92
  GI50: 1010 nM
  TGI: 2.26E−06
HOP-92; Log10 Concentration −4.0
  Mean Optical Densities: 0.767
  Percent Growth: −28%
HOP-92; Log10 Concentration −5.0
  Mean Optical Densities: 0.089
  Percent Growth: −92%
HOP-92; Log10 Concentration −6.0
  Mean Optical Densities: 1.361
  Percent Growth: 50%
HOP-92; Log10 Concentration −7.0
  Mean Optical Densities: 1.541
  Percent Growth: 82%
HOP-92; Log10 Concentration −8.0
  Mean Optical Densities: 1.567
  Percent Growth: 86%
